# Measurements as given in PMC7501296, “Rapid and direct control of target protein levels with VHL-recruiting dTAG molecules” (Nature Communications, 2020).
# Several values for one entry are separate records, joined by “and”; a condition that tells them apart may be missing. Equal entries are not always repeated.
# Assays:
# Type in all cases: cell-based
# FKBP12^WT-Nluc = molecular target: T1, FKBP12^WT-Nluc (Homo sapiens, UniProt P62942); assay: FKBP12WT-Nluc dual luciferase assay (293FT); settings: 293FT FKBP12WT-Nluc, 24 h
# T1 construct: expressed in transfected cells; host or cells: 293FT
# T1 sequence (P62942 2-108 limits assumed): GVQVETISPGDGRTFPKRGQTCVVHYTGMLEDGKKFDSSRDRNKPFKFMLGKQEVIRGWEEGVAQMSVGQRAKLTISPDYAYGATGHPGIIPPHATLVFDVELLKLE
# Description: (§1) Dual luciferase assays were performed using 293FT FKBP12^WT-Nluc and FKBP12^F36V-Nluc cells. In brief, cells were plated at 2000 cells per well in 20 µL of appropriate media in 384-well white culture plates (Corning), allowed to adhere overnight, and 100 nL of compounds were added using a Janus Workstation pin tool (PerkinElmer) for 24 h at 37 °C. To evaluate Fluc signal, plates were brought to room temperature, 20 µL of Dual-Glo Reagent (Promega) was added for 10 min and luminescence was measured on an Envision 2104 plate reader (PerkinElmer). Subsequently, 20 µL of Dual-Glo Stop & Glo Reagent (Promega) was added for 10 min and luminescence was again measured to capture Nluc signal. DMSO-normalized ratios of Nluc/Fluc signal was analyzed and plotted using GraphPad PRISM v8[6].
# FKBP12^F36V-Nluc = molecular target: T2, FKBP12^F36V-Nluc (Homo sapiens, UniProt P62942, F37V); assay: FKBP12F36V-Nluc dual luciferase assay (293FT); settings: 293FT FKBP12F36V-Nluc, 24 h
# T2 construct: expressed in transfected cells; host or cells: 293FT
# T2 sequence (P62942 2-108 F37V limits assumed): as the sequence (P62942 2-108 limits assumed) above, with F36V counted along it
# Description: as §1
# [1] = tested on: PATU-8902 LACZ-FKBP12^F36V clone; assay: Antiproliferation, PATU-8902 LACZ-FKBP12F36V clone, 2D-monolayer (CellTiter-Glo)
# Description: (§2) Cell viability was assayed in 2D-adherent or ultra-low adherent 3D-spheroids using CellTiter-Glo (Promega)[6],[15]. Luminescence was measured on an Envision 2104 plate reader (PerkinElmer) and Fluostar Omega Reader (BMG Labtech) and data was analyzed using GraphPad PRISM v8. Synergy assessments were performed using CellTiter-Glo (Promega) with the following modifications to the protocol described in the ref. [34]. In brief, EWS502 cells were plated at 1000 cells per well in 50 µL of appropriate media in 384-well white culture plates (Corning) allowed to adhere overnight, and 100 nL of compounds were added using a Janus Workstation pin tool (PerkinElmer) for 72 h. Cell viability was measured by addition of 10 µL of CellTiter-glo (Promega), followed by incubation for 15 minutes at room temperature. Luminescence was measured on an Envision 2104 plate reader (PerkinElmer) and data was analyzed using GraphPad PRISM v8.
# [2] = tested on: PATU-8902 FKBP12^F36V-KRAS^G12V; KRAS^-/- clone; assay: Antiproliferation, PATU-8902 FKBP12F36V-KRASG12V; KRAS-/- clone, 3D-spheroid (CellTiter-Glo); settings: FKBP12F36V-KRASG12V, KRAS-/-, 3D-spheroid, replicate values
# Description: as §2
# [3] = tested on: PATU-8902 FKBP12^F36V-KRAS^G12V; KRAS^-/- clone; assay: Antiproliferation, PATU-8902 FKBP12F36V-KRASG12V; KRAS-/- clone, 2D-monolayer (CellTiter-Glo)
# Description: as §2
# [4] = tested on: PATU-8902 LACZ-FKBP12^F36V clone; assay: Antiproliferation, PATU-8902 LACZ-FKBP12F36V clone, 3D-spheroid (CellTiter-Glo)
# Description: as §2
# [5] = log10[compound] (M) -5.30103, single replicates
# [6] = log10[compound] (M) -5.80103, single replicates
# [7] = log10[compound] (M) -6.30103, single replicates
# [8] = log10[compound] (M) -6.80103, single replicates
# [9] = log10[compound] (M) -7.30103, single replicates
# [10] = log10[compound] (M) -7.80103, single replicates
# [11] = log10[compound] (M) -8.30103, single replicates
# [12] = log10[compound] (M) -8.80103, single replicates
# [13] = log10[compound] (M) -9.30103, single replicates
# [14] = log10[compound] (M) -9.80103, single replicates
# [15] = log10[compound] (M) -5.69897, replicate values
# [16] = log10[compound] (M) -6.19897, replicate values
# [17] = log10[compound] (M) -6.69897, replicate values
# [18] = log10[compound] (M) -7.19897, replicate values
# [19] = log10[compound] (M) -7.69897, replicate values
# [20] = log10[compound] (M) -8.19897, replicate values
# [21] = log10[compound] (M) -8.69897, replicate values
# [22] = log10[compound] (M) -9.19897, replicate values
# [23] = log10[compound] (M) -9.69897, replicate values
# [24] = log10[compound] (M) -10.199, replicate values
smiles,measurement,setting,value
CC[C@H](C(=O)N1CCCC[C@H]1C(=O)O[C@H](CCc1ccc(OC)c(OC)c1)c1ccccc1OCC(=O)NCCCCCCCCNc1ccc2c(c1)C(=O)N(C1CCCNC1=O)C2=O)c1cc(OC)c(OC)c(OC)c1 (stereo partly drawn) [dTAG-47-NEG],DMSO-normalized ratio of Nluc/Fluc signal,FKBP12^WT-Nluc; [5],112.983 and 133.743 and 109.836 and 118.552
same,DMSO-normalized ratio of Nluc/Fluc signal,FKBP12^WT-Nluc; [6],88.6495 and 108.291 and 97.1172 and 97.9891
same,DMSO-normalized ratio of Nluc/Fluc signal,FKBP12^WT-Nluc; [7],84.7288 and 98.5773 and 69.8656 and 85.4355
same,DMSO-normalized ratio of Nluc/Fluc signal,FKBP12^WT-Nluc; [8],111.882 and 117.981 and 82.1602 and 97.6002
same,DMSO-normalized ratio of Nluc/Fluc signal,FKBP12^WT-Nluc; [9],80.9372 and 116.345 and 96.4274 and 100.006
same,DMSO-normalized ratio of Nluc/Fluc signal,FKBP12^WT-Nluc; [10],91.8268 and 107.899 and 89.5705 and 101.339
same,DMSO-normalized ratio of Nluc/Fluc signal,FKBP12^WT-Nluc; [11],96.8786 and 106.696 and 109.119 and 135.476
same,DMSO-normalized ratio of Nluc/Fluc signal,FKBP12^WT-Nluc; [12],100.791 and 113.508 and 74.3676 and 105.961
same,DMSO-normalized ratio of Nluc/Fluc signal,FKBP12^WT-Nluc; [13],140.604 and 140.668 and 98.5907 and 115.954
same,DMSO-normalized ratio of Nluc/Fluc signal,FKBP12^WT-Nluc; [14],87.4488 and 119.502 and 82.5871 and 99.1801
same,DMSO-normalized ratio of Nluc/Fluc signal,FKBP12^F36V-Nluc; [5],107.204 and 133.65 and 125.111 and 106.713
same,DMSO-normalized ratio of Nluc/Fluc signal,FKBP12^F36V-Nluc; [6],105.202 and 100.221 and 87.7709 and 98.1806
same,DMSO-normalized ratio of Nluc/Fluc signal,FKBP12^F36V-Nluc; [7],114.516 and 112.689 and 63.1557 and 96.6176
same,DMSO-normalized ratio of Nluc/Fluc signal,FKBP12^F36V-Nluc; [8],115.914 and 94.4993 and 79.2868 and 83.2258
same,DMSO-normalized ratio of Nluc/Fluc signal,FKBP12^F36V-Nluc; [9],95.8358 and 90.9039 and 76.6637 and 114.52
same,DMSO-normalized ratio of Nluc/Fluc signal,FKBP12^F36V-Nluc; [10],93.9184 and 139.979 and 82.2221 and 91.2143
same,DMSO-normalized ratio of Nluc/Fluc signal,FKBP12^F36V-Nluc; [11],91.746 and 110.613 and 89.992 and 115.75
same,DMSO-normalized ratio of Nluc/Fluc signal,FKBP12^F36V-Nluc; [12],108.43 and 84.8167 and 129.223 and 114.161
same,DMSO-normalized ratio of Nluc/Fluc signal,FKBP12^F36V-Nluc; [13],128.159 and 120.38 and 100.065 and 103.942
same,DMSO-normalized ratio of Nluc/Fluc signal,FKBP12^F36V-Nluc; [14],95.5174 and 90.4935 and 78.1755 and 112.193
same,DMSO-normalized antiproliferation,[1]; [15],66.1984 and 57.9546 and 80.6556 and 62.9228
same,DMSO-normalized antiproliferation,[1]; [16],65.6828 and 85.4625 and 78.6518 and 76.5663
same,DMSO-normalized antiproliferation,[1]; [17],102.61 and 78.6871 and 110.55 and 102.23
same,DMSO-normalized antiproliferation,[1]; [18],104.837 and 92.9898 and 109.382 and 132.676
same,DMSO-normalized antiproliferation,[1]; [19],141.282 and 157.373 and 114.442 and 100.315
same,DMSO-normalized antiproliferation,[1]; [20],95.0388 and 126.489 and 147.158 and 156.144
same,DMSO-normalized antiproliferation,[1]; [21],96.771 and 104.289 and 112.53 and 88.7912
same,DMSO-normalized antiproliferation,[1]; [22],117.441 and 113.828 and 97.736 and 88.8651
same,DMSO-normalized antiproliferation,[1]; [23],104.694 and 108.624 and 153.334 and 121.648
same,DMSO-normalized antiproliferation,[1]; [24],108.17 and 124.096 and 109.419 and 107.694
same,DMSO-normalized antiproliferation,[2]; log10[compound] (M) -5.69897,82.482 and 87.6886 and 103.208 and 99.4884
same,DMSO-normalized antiproliferation,[2]; log10[compound] (M) -6.19897,113.805 and 93.9254 and 98.397 and 96.9436
same,DMSO-normalized antiproliferation,[2]; log10[compound] (M) -6.69897,123.227 and 117.041 and 133.19 and 118.656
same,DMSO-normalized antiproliferation,[2]; log10[compound] (M) -7.19897,81.3571 and 110.96 and 121.028 and 111.088
same,DMSO-normalized antiproliferation,[2]; log10[compound] (M) -7.69897,122.42 and 111.862 and 100.29 and 122.927
same,DMSO-normalized antiproliferation,[2]; log10[compound] (M) -8.19897,142.5 and 118.093 and 120.226 and 127.732
same,DMSO-normalized antiproliferation,[2]; log10[compound] (M) -8.69897,121.028 and 116.139 and 119.196 and 128.785
same,DMSO-normalized antiproliferation,[2]; log10[compound] (M) -9.19897,130.238 and 109.673 and 113.755 and 125.733
same,DMSO-normalized antiproliferation,[2]; log10[compound] (M) -9.69897,131.246 and 139.231 and 145.63 and 98.1297
same,DMSO-normalized antiproliferation,[2]; log10[compound] (M) -10.199,85.3442 and 82.6434 and 122.826 and 96.2419
same,DMSO-normalized antiproliferation,[3]; [15],74.7022 and 73.4799 and 58.8574 and 61.1381
same,DMSO-normalized antiproliferation,[3]; [16],87.1466 and 90.577 and 94.4269 and 106.738
same,DMSO-normalized antiproliferation,[3]; [17],79.5247 and 86.4598 and 105.965 and 87.3723
same,DMSO-normalized antiproliferation,[3]; [18],125.17 and 98.7432 and 116.205 and 122.113
same,DMSO-normalized antiproliferation,[3]; [19],90.1708 and 148.45 and 111.91 and 91.8745
same,DMSO-normalized antiproliferation,[3]; [20],119.425 and 116.853 and 127.987 and 145.045
same,DMSO-normalized antiproliferation,[3]; [21],87.2626 and 88.668 and 110.555 and 114.959
same,DMSO-normalized antiproliferation,[3]; [22],135.954 and 152.721 and 117.778 and 94.3712
same,DMSO-normalized antiproliferation,[3]; [23],100.893 and 117.34 and 101.502 and 86.7015
same,DMSO-normalized antiproliferation,[3]; [24],99.6176 and 90.8045 and 95.2889 and 85.7881
same,DMSO-normalized antiproliferation,[4]; [15],97.4751 and 103.304 and 87.3281 and 98.4167
same,DMSO-normalized antiproliferation,[4]; [16],115.352 and 92.3949 and 111.46 and 98.7799
same,DMSO-normalized antiproliferation,[4]; [17],115.675 and 135.633 and 120.527 and 101.762
same,DMSO-normalized antiproliferation,[4]; [18],132.781 and 104.479 and 141.691 and 94.0763
same,DMSO-normalized antiproliferation,[4]; [19],113.77 and 136.938 and 126.087 and 111.72
same,DMSO-normalized antiproliferation,[4]; [20],141.265 and 116.402 and 127.835 and 120.491
same,DMSO-normalized antiproliferation,[4]; [21],117.15 and 123.8 and 115.155 and 128.638
same,DMSO-normalized antiproliferation,[4]; [22],109.537 and 110.734 and 119.818 and 124.491
same,DMSO-normalized antiproliferation,[4]; [23],101.506 and 115.774 and 112.487 and 105.932
same,DMSO-normalized antiproliferation,[4]; [24],91.3412 and 111.541 and 123.365 and 101.901
